Activity calls are given as the source filed them. No cut-off for these calls is given here.
Experiments:
[1] = system: J774; test: Cytotoxicity against mouse J774 cells assessed as reduction in cell viability incubated for 72 hrs by MTT assay; assay type: cell-based; settings: J774, 72 h
[2] = system: Leishmania donovani; test: Antileishmanial activity against Leishmania donovani LV82 intracellular amastigotes infected in murine peritoneal macrophage incubated for […] by beta-lactamase reporter gene based spectrophotometry; assay type: functional, organism-based
[3] = Selectivity index, ratio of IC50 for mouse peritoneal macrophages to IC50 for Leishmania donovani LV82 intracellular amastigotes; assay type: toxicity, cell-based; settings: read-out: Ratio IC50
[4] = system: Leishmania donovani; test: Antileishmanial activity against Leishmania donovani LV82 promastigotes infected in BALB/c mouse assessed as reduction in liver parasitemia at 1.2 mg/kg, ip administered for 5 days by Geimsa staining based assay relative to control; assay type: functional; parameters: scale not given: the % may be the effect or the level left
[5] = system: Leishmania donovani; test: Antileishmanial activity against Leishmania donovani Ld1s intracellular amasitgote infected in J774 cells incubated for 72 hrs by non-radioactive cell proliferation assay; assay type: functional, organism-based; settings: J774, 72 h
[6] = Selectivity index, ratio of IC for mouse J774 cells to IC50 for Leishmania donovani Ld1s promastigotes; assay type: toxicity; settings: J774 cells versus Leishmania donovani Ld1s promastigotes, read-out: Ratio IC50
[7] = Binding affinity to 5'-dCCAAAATTTTG CTCT CAAAATTTTGG-3' DNA (unknown origin) assessed as change in melting temperature at 2:1 ligand and DNA by specrophotometry
[8] = Binding affinity to 5'-dCCAAAAGTTTTG CTCT CAAAACTTTTGG-3' DNA (unknown origin) assessed as change in melting temperature at 2:1 ligand and DNA by specrophotometry
[9] = system: Leishmania donovani; test: Antileishmanial activity against Leishmania donovani LV82 amastigotes infected in mouse peritoneal microphage incubated for 72 hrs by DAPI staining based assay; assay type: functional, organism-based; settings: LV82, 72 h
[10] = Binding affinity to 5'-dCCAAAATTTTG CTCT CAAAATTTTGG-3' DNA (unknown origin) assessed as DNA intercalation incubated for 5 mins by circular dichroism method

SMILES | IC50 [1] | IC50 [2] | selectivity ratio [3] | Activity [4] | IC50 [5] | selectivity ratio [6] | ΔTm [7] | ΔTm [8] | IC50 [9] | Activity [10]
COc1cc([C@@H]2c3cc4c(cc3[C@H](O)[C@H]3COC(=O)[C@H]23)OCO4)cc(OC)c1OC [PODOFILOX] | 23 nM |  |  |  |  |  |  |  |  | 
CN1/C(=C/c2cc[n+](C)c3ccccc23)Sc2ccccc21.Cc1ccc(S(=O)(=O)[O-])cc1 |  | 21 nM | 25 | 48% |  |  |  |  |  | 
CN1/C(=C/c2cc[n+](Cc3ccccc3)c3ccccc23)Sc2ccccc21 | 190 nM |  |  |  | 26 nM | 7 |  |  |  | 
CN1/C(=C/c2cc[n+](C)c3cccc(-c4ccccc4)c23)Sc2ccccc21 | 160 nM |  |  |  | 42 nM | 3.8 | 3 °C | 2 °C |  | 
CN1/C(=C/c2cc[n+](C)c3ccccc23)Sc2ccccc21 [listing 1 of 2 here] | 190 nM |  |  |  | 14 nM | 14 |  |  |  | 
CN1/C(=C/c2cc[n+](C)c3ccccc23)Sc2ccccc21 [listing 2 of 2 here] |  |  |  |  |  |  | 4 °C | 4 °C |  | 
CN1/C(=C/c2cc[n+](C)c3ccc(-c4ccccc4)cc23)Sc2ccccc21 | 180 nM |  |  |  | 37 nM | 4.9 |  |  |  | 
Cc1cccc2c(/C=C3\Sc4ccccc4N3C)cc[n+](C)c12 | 120 nM |  |  |  | 30 nM | 4 | 4 °C | 3 °C |  | 
CN1C=CC(=Cc2sc3ccccc3[n+]2C)C=C1 | 2800 nM |  |  |  | 140 nM | 20 | 1 °C | < 1 °C | 960 nM | 
COc1cccc2c(/C=C3\Sc4ccccc4N3C)cc[n+](C)c12 | 59 nM |  |  |  | 30 nM | 2 |  |  |  | 
CN1/C(=C/c2cc[n+](C)c3cc(-c4ccccc4)ccc23)Sc2ccccc21 | 69 nM |  |  |  | 13 nM | 5.3 |  |  |  | 
CN1/C(=C/c2cc[n+](C)c3c(-c4ccccc4)cccc23)Sc2ccccc21 | 200 nM |  |  |  | 24 nM | 8.3 |  |  |  | 
CN1/C(=C/c2cc[n+](C)c3ccc(Cl)cc23)Sc2ccccc21 | 310 nM |  |  |  | 31 nM | 10 |  |  |  | 
CN1C=CS/C1=C\c1cc[n+](C)c2ccccc12 | 1500 nM |  |  |  | 160 nM | 9.4 | 2 °C | 1 °C |  | 
CN1/C(=C/c2cccc[n+]2C)Sc2ccccc21 | 2500 nM |  |  |  | 290 nM | 8.6 | < 1 °C | < 1 °C | 1700 nM | 
CC[n+]1ccc(/C=C2\Sc3ccccc3N2C)c2ccccc21 | 170 nM |  |  |  | 12 nM | 14 |  |  | 72 nM | 
CCC[n+]1ccc(/C=C2\Sc3ccccc3N2C)c2ccccc21 | 140 nM |  |  |  | 13 nM | 11 |  |  |  | 
CN1/C(=C/c2cc[n+](C)c3cccc(Cl)c23)Sc2ccccc21 | 130 nM |  |  |  | 16 nM | 8.1 |  |  |  | 
COc1ccc2c(c1)c(/C=C1\Sc3ccccc3N1C)cc[n+]2C | 200 nM |  |  |  | 28 nM | 7.1 |  |  |  | 
Cc1ccc2c(/C=C3\Sc4ccccc4N3C)cc[n+](C)c2c1 | 120 nM |  |  |  | 37 nM | 3.2 | 4 °C | 4 °C |  | 
COc1cccc2c1c(/C=C1\Sc3ccccc3N1C)cc[n+]2C | 86 nM |  |  |  | 25 nM | 3.4 |  |  |  | 
CN1/C(=C/c2cc[n+](C)c3cc(Cl)ccc23)Sc2ccccc21 | 180 nM |  |  |  | 34 nM | 5.3 |  |  |  | 
COc1ccc2c(/C=C3\Sc4ccccc4N3C)cc[n+](C)c2c1 | 140 nM |  |  |  | 35 nM | 4 |  |  |  | 
Cc1ccc2c(c1)c(/C=C1\Sc3ccccc3N1C)cc[n+]2C | 200 nM |  |  |  | 31 nM | 6.5 | 5 °C | 4 °C |  | Active
N=C(N)c1ccc(OCCCCCOc2ccc(C(=N)N)cc2)cc1 [PENTAMIDINE] |  |  |  |  | 3100 nM |  |  |  |  | 
Cc1cccc2c1c(/C=C1\Sc3ccccc3N1C)cc[n+]2C | 120 nM |  |  |  | 24 nM | 5 | 3 °C | 4 °C |  | 

— ChEMBL document CHEMBL4342431, “Synthesis and antileishmanial evaluation of thiazole orange analogs” (Bioorg Med Chem Lett, 2020)
